Measured values: patent publication US5693617A, “Inhibitors of the 26s proteolytic complex and the 20s proteasome contained therein” (ProScript, Inc., priority 1995, dated 1997)
pKi: −log10 of the molar value. Non-standard residues stand in square brackets, D forms with d. Residues, ends and D or L forms follow the SMILES beside them. ξ: configuration not given here. *: point of attachment. 1Nal = N[C@@H](Cc1cccc2ccccc12)C(=O)O; 2Nal = N[CH](Cc1ccc2ccccc2c1)C(=O)O; Cha = N[C@@H](CC1CCCCC1)C(=O)O; Ile(3ξ) = CCC(C)[C@H](N)C(=O)O; Nva = CCC[C@H](N)C(=O)O; Cbz = O=C(OCc1ccccc1)*; Boc = CC(C)(C)OC(=O)*; Bn = c1ccc(C*)cc1

How the values were obtained:
[1] = biological target: chymotrypsin-like activity of the proteasome; settings: cited from earlier work; for pKi: Vinitsky et al. 1992, slow binding inhibitors
20S proteasome = biological target: T1, 20S proteasome (Oryctolagus cuniculus, UniProt G1T4Q9); assay: Inhibition of the 20S proteasome peptidase activity (kinetic experiments); format: biochemical, Rabbit; settings: Rabbit muscle, SDS-activated, substrate Suc-LLVY-AMC; read-out: Ki 20S
T1 sequence (G1T4Q9 60-263): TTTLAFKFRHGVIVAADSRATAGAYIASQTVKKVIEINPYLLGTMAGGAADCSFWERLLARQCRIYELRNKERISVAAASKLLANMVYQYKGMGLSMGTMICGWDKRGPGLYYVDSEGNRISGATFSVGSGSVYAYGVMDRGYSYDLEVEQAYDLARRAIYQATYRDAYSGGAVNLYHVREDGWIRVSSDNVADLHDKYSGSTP
T1 sequence (G1SU71 1-241 partner): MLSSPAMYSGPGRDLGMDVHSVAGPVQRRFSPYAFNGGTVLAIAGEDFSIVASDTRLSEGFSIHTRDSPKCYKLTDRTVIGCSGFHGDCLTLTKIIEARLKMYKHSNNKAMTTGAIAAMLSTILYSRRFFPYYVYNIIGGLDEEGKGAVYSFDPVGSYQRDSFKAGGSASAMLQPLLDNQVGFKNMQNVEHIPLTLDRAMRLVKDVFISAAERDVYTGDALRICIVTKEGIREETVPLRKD
From the text: Tables I-III summarize results from kinetic experiments that measured the inhibition of the 20S and 26S proteasomes, as well as cathepsin B and calpain, enzymes that may also be involved in muscle protein turnover. In these tables, Ki values are reported, which are dissociation constants for the equilibrium that is established when enzyme and inhibitor interact to form the enzyme:inhibitor complex.
The substances and assay conditions are briefly summarized in the footnotes to Table I. MG 101 and MG 102, also known as Calpain Inhibitor I and II, were purchased from Calbiochem as catalogue products.
(^a) Rabbit muscle. SDSactivated. Substrate: SucLLVYAMC.

PC12 cells = settings: Tsubuki et al. 1993; cited from earlier work

Row | Compound | pKi (20S proteasome) | other results
1 | CSCC[C@@H](C=O)NC(=O)[C@H](CC(C)C)NC(=O)[C@H](CC(C)C)NC(C)=O [Ac-LLM-H, N-acetyl-Leu-Leu-methioninal] (Ac-Leu-Leu-Met-aldehyde) |  | pKi [1]: 4.48
2 | CC(C)C[C@H](NC(=O)OCc1ccccc1)C(=O)N[C@@H](CC(C)C)C(=O)N[C@H](C=O)Cc1ccccc1 [MG 110, Z-Leu-Leu-Phe-H] (Cbz-Leu-Leu-Phe-aldehyde) |  | pKi [1]: 6.34
3 | CC(C)CC(C=O)NC(=O)C(Cc1ccc2ccccc2c1)NC(=O)OCc1ccccc1 (stereo not drawn) [MG 279, Z-Nal-Leu-H] (Cbz-[2Nal]-Leu-aldehyde; configuration not given here) | 7.62 | 
4 | CC(C)C[C@@H](C=O)NC(=O)CNC(=O)CNC(=O)OCc1ccccc1 [Z-Gly-Gly-Leu-H] (Cbz-Gly-Gly-Leu-aldehyde) |  | Inhibition of the chymotrypsin-like activity of the proteasome ([1]; Orlowski 1990): inhibits the chymotrypsin-like activity of the proteasome
5 | CC(C)C[C@@H](C=O)NC(=O)[C@H](CC(C)C)NC(=O)[C@H](CC(C)C)NC(=O)OCc1ccccc1 [Z-Leu-Leu-Leu-H, Z-L-Leucine-L-Leucine-L-Leucinal] (Cbz-Leu-Leu-Leu-aldehyde) |  | Optimal concentration for initiating neurite outgrowth (PC12 cells): 30 nM
6 | CCOC(=O)C(=O)[C@H](Cc1ccccc1)NC(=O)[C@H](CC(C)C)NC(=O)[C@H](CC(C)C)NC(=O)OCc1ccccc1 [Z-Leu-Leu-Phe-COOEt] |  | pKi [1]: 4.28

The next lines start with results.

Row | pKi (20S proteasome) | Compound | other results
7 | 7.13 | CC(C)C[C@H](NC(=O)OCc1ccccc1)C(=O)N[C@@H](CC(C)C)C(=O)N[C@H](C=O)CC1CCCCC1 [MG 129] (Cbz-Leu-Leu-[Cha]-aldehyde) | 
8 | 8.15 | CC(C)C[C@H](NC(=O)OCc1ccccc1)C(=O)N[C@@H](CC(C)C)C(=O)N[C@H](C=O)Cc1ccc(O)cc1 [MG 131] (Cbz-Leu-Leu-Tyr-aldehyde) | 
9 | 8.40 | CC(C)C[C@@H](C=O)NC(=O)[C@H](CC(C)C)NC(=O)[C@H](CC(C)C)NC(=O)OCc1ccccc1 [MG 132] (Cbz-Leu-Leu-Leu-aldehyde) | 
10 | 6.98 | CCC(C)[C@@H](C=O)NC(=O)[C@H](CC(C)C)NC(=O)[C@H](CC(C)C)NC(=O)OCc1ccccc1 (stereo partly drawn) [MG 134] (Cbz-Leu-Leu-[Ile(3ξ)]-aldehyde) | 
11 | 9.70 | CCC[C@@H](C=O)NC(=O)[C@H](CC(C)C)NC(=O)[C@H](Cc1cccc2ccccc12)NC(=O)OCc1ccccc1 [MG 142] (Cbz-[1Nal]-Leu-[Nva]-aldehyde) | 
12 | 6.55 | CC(C)C[C@H](NC(=O)OCc1ccccc1)C(=O)N[C@@H](CC(C)C)C(=O)N[C@H](C=O)Cc1ccc(OCc2ccccc2)cc1 [MG 153] (Cbz-Leu-Leu-Tyr(Bn)-aldehyde) | 
13 | 7.33 | CC(C)C[C@@H](C=O)NC(=O)[C@H](CC(C)C)NC(=O)[C@H](CC(C)C)NC(=O)OC(C)(C)C [MG 155] (Boc-Leu-Leu-Leu-aldehyde) | 
